According to patent publication US5583142A, “Analgesic and nootropic drugs” (priority 1992, dated 1996):

Assay type: in vivo, mouse
Conditions: max. dose not affecting mice behaviour
Experimental: The analgesic action was detected in mouse, rat, guinea pig and dog. The mouse was subjected to hot plate and writhing tests; the rat to tail-flick and paw-pressure tests; the guinea pig to paw-pressure test only; the dog to the test described by Vainio et al. [J. Vet. Pharmacol. Ther., 12, 225-231 (1989)] using an electric stimulation. Consequently, the claimed compounds were tested with pain being induced by stimuli of different nature: thermal (hot plate and tail flick), chemical (writhing by acetic acid), mechanical (paw pressure) and electrical (cutaneous stimulation).
Potency, efficacy and toxicity of SM21, PG9 and SM32 in comparison with
four principal reference analgesic drugs tested in mouse. As analgesic

Row | Structure (SMILES) | ANALGESIC ACTIVITY (degree of analgesia, latency on hot plate)
1 | CC(Oc1ccc(F)cc1)C(=O)OC1CC2CCC(C1)N2C (single isomer, unassigned) [(S) NR100 (-)] | +++ (Latency under or equal to 35" +++-)
2 | CC(Nc1ccccc1)C(=O)OC1CC2CCC(C1)N2C (centres unmarked) [SS29] | +++ (Latency under or equal to 35" +++-)
3 | CC(Oc1ccc(Cl)c(Cl)c1)C(=O)OC1CC2CCC(C1)N2C (centres unmarked) [SS10] | + (Latency under or equal to 25" +-)
4 | CC(Sc1ccc(F)cc1)C(=O)OC1CC2CCC(C1)N2C (centres unmarked) [SM23] | ++ (Latency under or equal to 30" ++-)
5 | CC(Oc1ccc(F)cc1)C(=O)O[C@H]1C[C@H]2CC[C@@H](C1)N2C (some centres unmarked) [NR100] | ++++ (Latency above 35" ++++-)
6 | CC(Sc1ccc(Cl)cc1)C(=O)OC1CC2CCC(C1)N2C (single isomer, unassigned) [(R) SS20 (+)] | +++ (Latency under or equal to 35" +++-)
7 | CC(Nc1ccc(Cl)cc1)C(=O)OC1CC2CCC(C1)N2C (stereo not drawn) [AC5, 3α-Tropanyl 2-(p-chlorophenylamino)-propionate] | + (Latency under or equal to 25" +-)
8 | CCC(Oc1ccc2cc(Br)ccc2c1)C(=O)OC1CC2CCC(C1)N2C (centres unmarked) [AC31] | + (Latency under or equal to 25" +-)
9 | CCC(Oc1ccc(Cl)cc1)C(=O)O[C@H]1C[C@H]2CC[C@@H](C1)N2CC (stereo partly drawn) [GC-11, N-Ethyl-3α-nortropanyl 2-(p-chlopophenoxy)butyrate] | ++ (Latency under or equal to 30" ++-)
10 | CC(C(=O)OC1CC2CCC(C1)N2C)c1ccccc1Cl (centres unmarked) [PG14] | +++ (Latency under or equal to 35" +++-)
11 | CCN1C2CCC1CC(OC(=O)C(C)Oc1ccc(Cl)cc1)C2 (centres unmarked) [GC9] | ++ (Latency under or equal to 30" ++-)
12 | CC(Oc1ccc2ccccc2c1)C(=O)O[C@H]1C[C@H]2CC[C@@H](C1)N2C (stereo partly drawn) [AC-19, 3α-Tropanyl 2-(β-naphthoxy)propionate] | +++ (Latency under or equal to 35" +++-)
13 | CC(C(=O)OC1CC2CCC(C1)N2C)c1ccc(N)cc1 (centres unmarked) [PG5] | + (Latency under or equal to 25" +-)
14 | CC(Oc1ccc(Cl)cc1)C(=O)OC1CC2CCC(C1)N2C (single isomer, unassigned) [(R) ET142 (+)] | +++ (Latency under or equal to 35" +++-)
15 | CC(C)C(Sc1ccc(Cl)cc1)C(=O)OC1CC2CCC(C1)N2C (centres unmarked) [AC11] | + (Latency under or equal to 25" +-)
16 | CC(C(=O)OC1CC2CCC(C1)N2C)c1ccc([N+](=O)[O-])cc1 (centres unmarked) [PG4] | + (Latency under or equal to 25" +-)
17 | CC(C(=O)O[C@H]1C[C@H]2CC[C@@H](C1)N2C)N(C)c1ccc(Cl)cc1 (stereo partly drawn) [AC6, 3α-Tropanyl 2-[N-methyl-N(p-chlorophenyl)amino]-propionate] | ++ (Latency under or equal to 30" ++-)
18 | CC(C(=O)OC1CC2CCC(C1)N2C)c1ccc(F)cc1 (centres unmarked) [PG21] | +++ (Latency under or equal to 35" +++-)
19 | CN1[C@@H]2CC[C@H]1C[C@@H](OC(=O)C(C)(C)Oc1ccc(Cl)cc1)C2 [SM-25, 3α-Tropanyl 2-(p-chlorophenoxy)-isobutyrate] | ++ (Latency under or equal to 30" ++-)
20 | CC(Oc1ccc(Cl)cc1)C(=O)N[C@H]1C[C@H]2CC[C@@H](C1)N2C (stereo partly drawn) [SS-16, N-(3α-tropanyl)-2-(p-chlorophenoxy)-propionamide] | + (Latency under or equal to 25" +-)
21 | CC(Oc1ccc(C(F)(F)F)cc1)C(=O)O[C@H]1C[C@H]2CC[C@@H](C1)N2C (some centres unmarked) [SM19] | + (Latency under or equal to 25" +-)
22 | CC(Sc1ccccc1)C(=O)OC1CC2CCC(C1)N2C (centres unmarked) [SS12] | ++ (Latency under or equal to 30" ++-)

Row | Structure (SMILES) | ANALGESIC ACTIVITY (degree of analgesia, latency on hot plate)
23 | CC(Oc1ccc(Br)cc1)C(=O)O[C@H]1C[C@H]2CC[C@@H](C1)N2C (some centres unmarked) [SM15] | ++ (Latency under or equal to 30" ++-)
24 | COc1ccc(C(C)C(=O)OC2CC3CCC(C2)N3C)cc1 (centres unmarked) [PG18] | + (Latency under or equal to 25" +-)
25 | CC(Sc1ccc(Br)cc1)C(=O)OC1CC2CCC(C1)N2C (centres unmarked) [SM17] | ++++ (Latency above 35" ++++-)
26 | CC(C(=O)O[C@H]1C[C@H]2CC[C@@H](C1)N2C)c1ccc(Cl)cc1 (stereo partly drawn) [PG-8, 3α-Tropanyl 2-(p-chlorophenyl)-propionate] | +++ (Latency under or equal to 35" +++-)
27 | CSc1ccc(OC(C)C(=O)O[C@H]2C[C@H]3CC[C@@H](C2)N3C)cc1 (some centres unmarked) [NR95] | + (Latency under or equal to 25" +-)
28 | CC(Sc1ccc(Cl)cc1)C(=O)OC1CC2CCC(C1)N2C (single isomer, unassigned) [(S) SS20 (+)] | ++ (Latency under or equal to 30" ++-)
29 | CC(C(=O)OC1CC2CCC(C1)N2C)c1ccccc1Br (centres unmarked) [PG23] | ++ (Latency under or equal to 30" ++-)
30 | CC(C(=O)OC1CC2CCC(C1)N2C)c1cccc(Cl)c1 (centres unmarked) [PG13] | +++ (Latency under or equal to 35" +++-)
31 | CC(C)Cc1ccc(C(C)C(=O)OC2CC3CCC(C2)N3C)cc1 (centres unmarked) [PG16] | + (Latency under or equal to 25" +-)
32 | CCC(C(=O)OC1CC2CCC(C1)N2C)c1ccc(Br)cc1 (centres unmarked) [PG24] | +++ (Latency under or equal to 35" +++-)
33 | CC(Sc1ccc(Cl)cc1)C(=O)O[C@H]1C[C@H]2CC[C@@H](C1)N2C (stereo partly drawn) [SS-20, 3α-Tropanyl 2-(p-chlorophenylthio)propionate] | +++ (Latency under or equal to 35" +++-)
34 | CC(Oc1ccc(C#N)cc1)C(=O)O[C@H]1C[C@H]2CC[C@@H](C1)N2C (some centres unmarked) [SS26] | ++ (Latency under or equal to 30" ++-)
35 | CCC(Sc1ccc(Cl)cc1)C(=O)OC1CC2CCC(C1)N2C (single isomer, unassigned) [(R) SM35 (+), 3α-Tropanyl 2-(p-chlorophenylthio)butyrate] | +++ (Latency under or equal to 35" +++-)
36 | CC(Oc1cccc(Cl)c1)C(=O)OC1CC2CCC(C1)N2C (centres unmarked) [SM12] | ++ (Latency under or equal to 30" ++-)
37 | CCC(Sc1ccc(Cl)cc1)C(=O)OC1CC2CCC(C1)N2C (single isomer, unassigned) [(S) SM35 (-), 3α-Tropanyl 2-(p-chlorophenylthio)butyrate] | ++ (Latency under or equal to 30" ++-)
38 | CCC(Oc1ccc(F)cc1)C(=O)OC1CC2CCC(C1)N2C (centres unmarked) [AC15] | ++++ (Latency above 35" ++++-)
39 | CCC(Sc1ccc(Cl)cc1)C(=O)O[C@H]1C[C@H]2CC[C@@H](C1)N2C (stereo partly drawn) [SM-35, 3α-Tropanyl 2-(p-chlorophenylthio)-butyrate] | +++ (Latency under or equal to 35" +++-)
40 | CC(Oc1ccc(F)cc1)C(=O)OC1CC2CCC(C1)N2C (single isomer, unassigned) [(R) NR100 (+)] | ++++ (Latency above 35" ++++-)
41 | CCC(C(=O)OC1CC2CCC(C1)N2C)N(C)c1ccc(Cl)cc1 (centres unmarked) [AC13] | ++++ (Latency above 35" ++++-)
42 | CC(Oc1ccc(Cl)cc1)C(=O)OC1CC2CCC(C1)N2C (single isomer, unassigned) [(S) ET142 (-)] | ++ (Latency under or equal to 30" ++-)
43 | Cc1ccc(SC(C)C(=O)OC2CC3CCC(C2)N3C)cc1 (centres unmarked) [SS21] | + (Latency under or equal to 25" +-)

Same assay, conditions: mouse; in μmoles/kg

Row | Structure (SMILES) | dose required to obtain analgesia equivalent to that of the claimed compounds
44 | CN1CC[C@]23c4c5ccc(O)c4O[C@H]2[C@@H](O)C=C[C@H]3[C@H]1C5.Cl [Morphine HCl, reference compound] | three times lower
